Assay results published in patent US12215067B2, “Chemical compounds targeting the eye and use thereof in the treatment of eye diseases” (BIOPHYTIS, priority 2019, dated 2025).

Key:
[1] = tested on: primary cultures of RPE of adult pigs; test: In vitro photoprotection of RPE cells illuminated with blue light in the presence of A2E; format: cell-based, pig; settings: Sus scrofa, RPE, A2E 30 μM, survival 24 h after illumination; for viability at 5 µM: 5 μM compound; for viability at 10 µM: 10 μM compound; for viability at 20 µM: 20 μM compound
From the text: In addition to better distribution in the target-tissue, selecting new compounds must also be based on good photo-protective activity that limits the loss of the cells of the RPE and thus reducing the retinal degeneration observed during the AMD and other degenerative diseases such as Retinitis pigmentosa and Stargardt's disease. At the cellular level, on cultures of cells the RPE coming from pig retina, Fontaine et al. (2016) have shown that a treatment with norbixin (BIO201) protects the cells of the RPE against apoptosis following an illumination in the presence of A2E (80% survival 24 h after exposure). This same screening test according to the percentage of photoprotection was used so as to determine its modulation by and the chemical compounds derived from norbixin (C) object of the present invention in comparison with the photo-protective effect of norbixin and characterize these modulations from a statical standpoint.
The test in vitro described hereinabove and intended to study the photo-protective effect of norbixin was used so as to quantify the photo-protective effects of the various chemical compounds derived from norbixin (C) on the cells of the RPE illuminated with blue light in the presence of A2E (FIG. 3). The photo-protective effect of the molecules was evaluated in a phototoxicity cellular model induced by treatment by A2E followed by an illumination with blue light. The term “blue radiation” means the radiation corresponding to the blue band of the visible light spectrum, i.e. of a wavelength comprised between 435 and 490 nm. This model uses primary cultures of RPE of adult pigs. The cell survival is quantified thanks to a test of cellular viability. At −48 h the compounds to be tested (in solution at 5 mM in the DMSO) are added to obtain the final concentrations of 1 to 20 μM) then at −19 h of the A2E (final concentration 30 μM) and the cells (time 0 h) are illuminated. 24 h after the survival of the cells is measured. The acquisition of images, as well as the processing thereof, are carried out using a fluorescence microscope controlled by the Metamorph software and a dedicated quantification program. The experiments are conducted on a 96-well microplate in quadruplicate and the experiment is reproduced at least four times. The results are expressed in the form of a ratio representing the number of living cells in the wells treated by the molecules to be tested, divided by the number of living cells in the controlled wells (treated by the dilution medium without A2E). This test made it possible hereinabove to reveal the photo-protective activity of norbixin (Fontaine et al. 2016).

[2] = Pharmacokinetic study via oral administration in mice, plasma concentrations; format: in vivo, mice C57BL/6; settings: C57BL/6, mouse, in vivo, po, 50 mg/kg
Method: (§1) The pharmacokinetic study of the chemical compounds (C) following the oral administration thereof was conducted using mice C57BL/6 (January, 53940 The Genest Saint Isle, France). The chemical compounds derived from norbixin (C) were administered at a dose of 50 mg/kg of body weight. After administration, the blood was sampled at the tail at t=0.25 h; 0.5 h; 1 h; 3 h; 6 h and 8 h. The blood samples were centrifuged and the plasmas taken. The dosage of the plasma samples made it possible to determine pharmacokinetic parameters, namely Cmax, which corresponds to the maximum concentration observed after the administration of the molecule, Tmax which is the time required to reach maximum concentration after administration of the molecule and the AUC: the area under the curve which corresponds to the plasma exposure (FIG. 2).
(§2) The LC-MSMS analysis is carried out with a HPLC 1200 Infinity chain (Agilent Technologies, Santa-Clara, United States), a UV detector and a mass spectrometer QQQ6420 (Agilent Technologies Santa-Clara, United States). The injection volume is 5 μL. The chemical compounds C are eluted on an inverse phase column C18 (2.1*50 mm, particles 3 μm; Ace-C18-Excel, AIT) with a gradient of acetonitrile and water (containing 0.1% formic acid) and a flow rate of 0.3 mL/min. The conditions of the gradient can change according to the chemical compound C analyzed. The UV detector analyzes at 460 nm and the mass spectrometer analyzed in Mode MRM—Positive.
(§3) Table 2 discloses the pharmacokinetic results of the chemical compounds C following the administration p.o. 50 mg/kg in D-α-Tocopheryl polyethylene glycol 1000 succinate (VitE-TPGS) 20% in a sodium bicarbonate buffer (0.1M).

[3] = Pharmacokinetic study via oral administration in mice, ocular concentrations; format: in vivo, mice C57BL/6; settings: for Tmax: C57BL/6, mouse, eye, po; for Eye Exposure 50 mg/kg p.o. AUC: Table 3, repeats the eye exposure of Table 2
Method: as §1
In parallel, the ocular concentrations of the chemical compounds derived from norbixin (C) were dosed in the following way (FIG. 1): both eyes of each mouse were taken in Precellys tubes and stored at −80° C. until the time of dosing. The eyes are then ground in the Precellys tubes with a bench homogenizer, Fast-prep (Fischer Scientific, Hampton, United States) in a mixture of organic solvents, in a first step with 500 μL of chloroform/methanol (1/1, v/v) then 500 μL of chloroform/dichloromethane (1/1, v/v). The supernatants are recovered at each step and transferred to a 96-well plate of 2 mL.
For the quantification of the chemical compounds C, a calibration curve is carried out with 8 standards (5 to 5,000 ng/mL) in the same organic solvent mixtures and transferred (100 μL) to the 96-well plate of 2 mL.
The supernatants and standards are evaporated in a EZ2 (Genevac, Ipswich, United Kingdom), without heating, then taken with 100 μL of DMSO/methanol (20:80, v/v) before being transferred to a 96-well plate of 200 μL.
as §2, §3

[4] = mice, p.o. 50 mg/kg in VitE-TPGS 20% in sodium bicarbonate buffer (0.1M)

SMILES | viability at 5 µM [1] | viability at 10 µM [1] | viability at 20 µM [1] | Cmax [2] | Plasma Exposure [2] | Tmax [2] | Tmax [3, 4] | Eye Exposure 50 mg/kg p.o. AUC [3] | Eye CMax [3, 4] | Eye Exposure ([3]; mice, p.o. 50 mg/kg in VitE-TPGS 20% in sodium bicarbonate buffer (0.1M), area under the curve)
CCCOC1CCN(C(=O)/C=C/C(C)=C/C=C/C(C)=C/C=C/C=C(C)/C=C/C=C(C)\C=C\C(=O)O)CC1 [C22, 1-[4-n-propoxypiperidinamido](2E,4E,6E,8E,10E,12E,14E,16Z,18E)-4,8,13,17-tetramethylicosa-2,4,6,8,10,12,14,16,18-nonaenedioate] | 64.5% | 72.8% | 66% | 12800 ng/mL | 37.25 µg·h/mL | 0.25 h | 2 h | 358.5 ng · h/eye | 42.1 ng/eye | –
CCOCC1CCN(C(=O)/C=C/C(C)=C/C=C/C(C)=C/C=C/C=C(C)/C=C/C=C(C)\C=C\C(=O)O)CC1 [C23, 1-[4-ethylmethoxypiperidinamido](2E,4E,6E,8E,10E,12E,14E,16Z,18E)-4,8,13,17-tetramethylicosa-2,4,6,8,10,12,14,16,18-nonaenedioate] | 38.4% | 59.2% | 73.1% | 5010 ng/mL | 24.1 µg·h/mL | 1 h | 2 h | 54.7 ng · h/eye | 11 ng/eye | –
CC(=C/C=C/C(C)=C/C=C/C=C(C)/C=C/C=C(C)/C=C/C(=O)N1C[C@@H](C)O[C@@H](C)C1)/C=C/C(=O)O [C15] | 5.4% | 10% | 58.5% | 17300 ng/mL | 46.99 µg·h/mL | 0.5 h | 0.5 h | 108.5 ng · h/eye | 22.8 ng/eye | 108.5 ng · h/eye
CC(=C/C=C/C(C)=C/C=C/C=C(C)/C=C/C=C(C)/C=C/C(=O)NCC(C)(C)N1CCOCC1)/C=C/C(=O)O [C13, 1-[2-methyl-2-(4-morpholinyl)propylamido](2E,4E,6E,8E,10E,12E,14E,16Z,18E)-4,8,13,17-tetramethylicosa-2,4,6,8,10,12,14,16,18-nonaenedioate] | 8% | 0.5% | 8% | 27900 ng/mL | 139.7 µg·h/mL | 0.5 h | 1 h | 461.1 ng · h/eye | 60.7 ng/eye | –
CC(=C/C=C/C(C)=C/C=C/C=C(C)/C=C/C=C(C)/C=C/C(=O)N1CCC(O)CC1)/C=C/C(=O)O [C12, 1-[4-hydroxypiperidinamido](2E,4E,6E,8E,10E,12E,14E,16Z,18E)-4,8,13,17-tetramethylicosa-2,4,6,8,10,12,14,16,18-nonaenedioate] | 7.7% | 14.3% | 59.6% | 29300 ng/mL | 186.3 µg·h/mL | 0.5 h | 1 h | 538.4 ng · h/eye | 50.7 ng/eye | –
CC(=C/C=C/C(C)=C/C=C/C=C(C)/C=C/C=C(C)/C=C/C(=O)NCCO)/C=C/C(=O)O [C4, 1-[2-hydroxyethanamido](2E,4E,6E,8E,10E,12E,14E,16Z,18E)-4,8,13,17-tetramethylicosa-2,4,6,8,10,12,14,16,18-nonaenedioate] | 16.4% | 36% | 67.2% | 57100 ng/mL | 208.6 µg·h/mL | 1 h | 0.5 h | 30.0 ng · h/eye | 10.2 ng/eye | –
CC(=C/C=C/C(C)=C/C=C/C=C(C)/C=C/C=C(C)/C=C/C(=O)N1CCSCC1)/C=C/C(=O)O [C6] | – | 60.6% | 19.1% | 3950 ng/mL | 10.81 µg·h/mL | 0.5 h | 0.5 h | 23.1 ng · h/eye | 3.9 ng/eye | –
COC1CCCN(C(=O)/C=C/C(C)=C/C=C/C(C)=C/C=C/C=C(C)/C=C/C=C(C)\C=C\C(=O)O)C1 (stereo not drawn) [C20, 1-[3-methoxypiperidinamido](2E,4E,6E,8E,10E,12E,14E,16Z,18E)-4,8,13,17-tetramethylicosa-2,4,6,8,10,12,14,16,18-nonaenedioate] | 65.6% | 65.6% | 79% | 35000 ng/mL | 160.4 µg·h/mL | 1 h | 2 h | 421.9 ng · h/eye | 80.4 ng/eye | –
CC(=C/C=C/C(C)=C/C=C/C=C(C)/C=C/C=C(C)/C=C/C(=O)N1CCC(O)C1)/C=C/C(=O)O (stereo in doubt) [C11, 1-[(R)-3-hydroxypyrrolidinamido](2E,4E,6E,8E,10E,12E,14E,16Z,18E)-4,8,13,17-tetramethylicosa-2,4,6,8,10,12,14,16,18-nonaenedioate] | 21.1% | 39.3% | 63.4% | 35900 ng/mL | 190 µg·h/mL | 1 h | 1 h | 238.4 ng · h/eye | 47.7 ng/eye | –
CC(=C/C=C/C(C)=C/C=C/C=C(C)/C=C/C=C(C)/C=C/C(=O)N1CCC(CO)CC1)/C=C/C(=O)O [C14, 1-[4-hydroxymethylpiperidinamido](2E,4E,6E,8E,10E,12E,14E,16Z,18E)-4,8,13,17-tetramethylicosa-2,4,6,8,10,12,14,16,18-nonaenedioate] | 3.1% | 46.8% | 79.3% | 19000 ng/mL | 162.2 µg·h/mL | 0.5 h | 1 h | 322.5 ng · h/eye | 43.2 ng/eye | –
